Experimental data published in ChEMBL document CHEMBL4184187, “Current knowledge on the nucleotide agonists for the P2Y2 receptor” (Bioorg Med Chem, 2018).

Columns and labels:
P2Y purinoceptor 2 [1] = target: T1, P2Y purinoceptor 2 (Homo sapiens, UniProt P41231); assay: Agonist activity at human P2Y2 receptor expressed in 1321N1 cells assessed as [3H]-inositol phosphate accumulation measured after 90 mins by anion exchange chromatographic method; format: functional, cell-based
P2Y purinoceptor 2 [2] = target: T1, P2Y purinoceptor 2; assay: Agonist activity at P2Y2 receptor (unknown origin); format: functional
P2Y purinoceptor 1 = P2Y purinoceptor 1 (Homo sapiens, UniProt P47900); assay: Antagonist activity at P2Y1 receptor (unknown origin); format: functional
P2Y purinoceptor 1, sequence (P47900 whole entry): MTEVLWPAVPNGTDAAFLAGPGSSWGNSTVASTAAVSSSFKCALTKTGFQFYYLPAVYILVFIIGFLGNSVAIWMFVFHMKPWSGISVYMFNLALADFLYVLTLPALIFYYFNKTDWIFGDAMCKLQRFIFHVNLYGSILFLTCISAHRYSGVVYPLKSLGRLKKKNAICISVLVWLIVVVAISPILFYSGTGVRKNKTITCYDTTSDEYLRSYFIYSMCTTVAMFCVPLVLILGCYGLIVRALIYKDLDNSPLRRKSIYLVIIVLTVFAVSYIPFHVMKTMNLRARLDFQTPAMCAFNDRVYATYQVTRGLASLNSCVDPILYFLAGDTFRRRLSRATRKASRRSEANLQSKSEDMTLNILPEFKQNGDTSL

P2Y purinoceptor 2 [3] = target: T1, P2Y purinoceptor 2; assay: Agonist activity at P2Y2 receptor in NG108-15 cells (unknown origin); format: functional, cell-based
P2Y purinoceptor 2 [4] = target: T1, P2Y purinoceptor 2; assay: Agonist activity at P2Y2 receptor in BEA cells (unknown origin); format: functional, cell-based
P2Y purinoceptor 2 [5] = target: T1, P2Y purinoceptor 2; assay: Agonist activity at P2Y2 receptor in human CF/T43 cells; format: functional, cell-based

T1 sequence (P41231 whole entry): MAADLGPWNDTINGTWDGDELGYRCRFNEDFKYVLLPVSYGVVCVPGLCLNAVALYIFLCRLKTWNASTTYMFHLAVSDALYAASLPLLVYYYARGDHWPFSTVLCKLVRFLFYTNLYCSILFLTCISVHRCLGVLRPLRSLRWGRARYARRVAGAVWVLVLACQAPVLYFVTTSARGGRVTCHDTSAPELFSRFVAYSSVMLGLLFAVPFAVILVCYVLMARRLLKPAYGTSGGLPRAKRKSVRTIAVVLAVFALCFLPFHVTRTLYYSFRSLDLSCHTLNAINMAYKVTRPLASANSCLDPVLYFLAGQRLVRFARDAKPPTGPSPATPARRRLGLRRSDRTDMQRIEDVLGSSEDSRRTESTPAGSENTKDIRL

| SMILES | EC50 (P2Y purinoceptor 2 [1]) | further results |
| --- | --- | --- |
| O=c1[nH]c(=O)n([C@@H]2O[C@H](COP(=O)(O)OP(=O)(O)OP(=O)(O)O)[C@@H](O)[C@H]2O)cc1Br |  | EC50 (P2Y purinoceptor 2 [2]): 220 nM |
| C#CCNC(=O)COc1ccc(CCCO/N=c2\ccn([C@@H]3O[C@H](COP(=O)(O)OP(=O)(O)OP(=O)(O)O)[C@@H](O)[C@H]3O)c(=O)[nH]2)cc1 | 109 nM |  |
| CCCCCCOc1ccn([C@@H]2O[C@H](COP(=O)(O)OP(=O)(O)OP(=O)(O)O)[C@@H](O)[C@H]2O)c(=O)n1 | 489000 nM |  |
| CNc1ncnc2c1ncn2[C@@H]1C[C@H](COP(=O)(O)O)[C@@H](OP(=O)(O)O)C1 |  | IC50 (P2Y purinoceptor 1): 148 nM |
| CCCCCCNc1ccn([C@@H]2O[C@H](COP(=O)(O)OP(=O)(O)OP(=O)(O)O)[C@@H](O)[C@H]2O)c(=O)n1 | 26300 nM |  |
| CCCCCCSc1ccn([C@@H]2O[C@H](COP(=O)(O)OP(=O)(O)OP(=O)(O)O)[C@@H](O)[C@H]2O)c(=O)n1 | 840 nM |  |
| Nc1ncnc2c1ncn2[C@@H]1O[C@H](COP(=O)(O)OP(=O)(O)OP(=O)(O)O)[C@@H](O)[C@H]1O [ADENOSINE TRIPHOSPHATE] |  | EC50 (P2Y purinoceptor 2 [3]): 180 nM; EC50 (P2Y purinoceptor 2 [4]): 200 nM; EC50 (P2Y purinoceptor 2 [5]): 200 nM |
| O=c1ccn([C@@H]2O[C@H](COP(=O)(O)OP(=O)(O)OP(=O)(O)O)[C@@H](O)[C@H]2O)c(=O)[nH]1 [URIDINE TRIPHOSPHATE] | 120 nM | EC50 (P2Y purinoceptor 2 [3]): 1250 nM; EC50 (P2Y purinoceptor 2 [4]): 160 nM |

Continued, in another order:

| EC50 (P2Y purinoceptor 2 [1]) | SMILES | further results |
| --- | --- | --- |
| 710 nM | O=c1[nH]c(=S)ccn1[C@@H]1O[C@H](COP(=O)(O)OP(=O)(O)OP(=O)(O)O)[C@@H](O)[C@H]1O |  |
| 10200 nM | O=c1nc(N2CCOCC2)ccn1[C@@H]1O[C@H](COP(=O)(O)OP(=O)(O)OP(=O)(O)O)[C@@H](O)[C@H]1O |  |
| 3100 nM | CSc1ccn([C@@H]2O[C@H](COP(=O)(O)OP(=O)(O)OP(=O)(O)O)[C@@H](O)[C@H]2O)c(=O)n1 |  |
| 15500 nM | COc1ccn([C@@H]2O[C@H](COP(=O)(O)OP(=O)(O)OP(=O)(O)O)[C@@H](O)[C@H]2O)c(=O)n1 |  |
| 29800 nM | CN(C)c1ccn([C@@H]2O[C@H](COP(=O)(O)OP(=O)(O)OP(=O)(O)O)[C@@H](O)[C@H]2O)c(=O)n1 |  |
| 37800 nM | Nc1ccn([C@@H]2O[C@H](COP(=O)(O)OP(=O)(O)OP(=O)(O)O)[C@@H](O)[C@H]2O)c(=O)n1 [CYSTETINE TRIPHOSPHATE] |  |
